The values that follow come from patent publication US20230226013A1, “COMPOSITION AND METHOD FOR TREATING CANCER” (Carmel-Haifa University Economic Corp Ltd., priority 2019, published 2023).

Data set [1] has as its system HPAF-II and PL45 human pancreatic cancer cells. Nature of the data set: Annexin-V/PI assay, induction of apoptosis. As to conditions: low doses, 4 hours of exposure. It counts as cell-based. The procedure: Particularly, Cell death was analyzed by staining the cells with FITC-labeled Annexin V and propedium iodide (PI) using an Annexin V-FITC apoptosis detection kit, (MBL, Nagoya, Japan), according to the manufacturer’s instructions.

Data set [2] has the same test system. Description: XTT assay, cell viability / proliferation. The format is cell-based. The procedure: Reference is now made to FIG. 4, presenting the effect of Striatal C on the viability of HPAF-II and PL45 human pancreatic cancer cells, in comparison to the effect of the Cyathus striatus CBS 126585 extract on the same cells, wherein the measurements of the effects are based on an XTT assay. Particularly, cell proliferation was determined using the sodium 3′-[1-(phenylaminocarbonyl)-3,4-tetrazolium]-bis (4-methoxy-6-nitro) benzene sulfonic acid hydrate (XTT) assay, according to the manufacturer’s instructions (Biological Industries, Beit Haemek, Israel).
On the technique in general: Formazan colour is commonly taken as a measure of viable cells.

Data set [3] can be described thus: Stability of the isolated compound (solid state; in dichloromethane solution). It counts as physicochemical. Conditions: solid state conditions at -20° C. As to the method: 2. The isolated compound was stable and pure (purity > 95% by HPLC) at solid state conditions at -20° C.
4. During NMR experiments observed partially isomerization of isolated compound. The dissolving in dichloromethane at 20 mg/ml concentration leads to steady state between major and minor isomers with ratio ~75:25. HPLC analyses of NMR solution show only one peak of isolated compound.

With `CC(C)C1=C2C3=CC=C(C=O)[C@@H]4C(O[C@@H]5OC[C@@H](O)C(=O)[C@@]54O)[C@]3(C)CC[C@@]2(C)CC1` (stereo partly shown) [Striatal C], the induction of apoptosis result in data set [1] was “induction of apoptosis”. In addition, the most effective concentration in data set [2] (control 0 µg/ml) came to 10 µg/mL. For the same compound, in data set [2] (low doses, 4 hours of exposure), the “effect on cell viability” value is “profound decrease in cell viability”.
On to `CC(C)C1=C2[C@H]3[C@@H](O)C=C(C=O)[C@@H]4C(O[C@@H]5OC[C@@H](O)C(=O)[C@@]54O)[C@]3(C)CC[C@@]2(C)CC1` (stereo partly shown) [isolated compound], for which, in data set [3], the “stability at solid state” value is listed as “stable”.
